One assay deals with T1, OCTN2/slc22a5 (Mus musculus, UniProt Q9Z0E8).
T1 sequence (Q9Z0E8 1-557): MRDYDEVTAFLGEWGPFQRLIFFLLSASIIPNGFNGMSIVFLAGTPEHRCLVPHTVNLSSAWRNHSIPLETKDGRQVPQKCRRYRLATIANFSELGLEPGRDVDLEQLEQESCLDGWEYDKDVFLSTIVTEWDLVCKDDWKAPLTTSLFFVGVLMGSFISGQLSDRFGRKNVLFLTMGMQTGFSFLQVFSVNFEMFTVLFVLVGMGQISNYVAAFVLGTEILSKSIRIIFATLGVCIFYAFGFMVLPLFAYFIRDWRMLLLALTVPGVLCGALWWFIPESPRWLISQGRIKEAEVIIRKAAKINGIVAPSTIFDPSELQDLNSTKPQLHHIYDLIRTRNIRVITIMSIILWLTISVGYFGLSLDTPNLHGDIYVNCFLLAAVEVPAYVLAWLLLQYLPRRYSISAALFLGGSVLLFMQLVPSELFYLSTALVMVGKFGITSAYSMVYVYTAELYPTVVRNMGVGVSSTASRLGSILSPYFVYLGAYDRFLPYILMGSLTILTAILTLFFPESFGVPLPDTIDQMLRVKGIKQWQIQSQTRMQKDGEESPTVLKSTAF
Nature of the assay: [3H]L-carnitine uptake in NSC-34 cells with mOCTN2 siRNA knockdown. It counts as cell-based.

For a further assay, the target named is T2, OCTN1/slc22a4 (Mus musculus, UniProt Q9Z306).
T2 sequence (Q9Z306 1-553): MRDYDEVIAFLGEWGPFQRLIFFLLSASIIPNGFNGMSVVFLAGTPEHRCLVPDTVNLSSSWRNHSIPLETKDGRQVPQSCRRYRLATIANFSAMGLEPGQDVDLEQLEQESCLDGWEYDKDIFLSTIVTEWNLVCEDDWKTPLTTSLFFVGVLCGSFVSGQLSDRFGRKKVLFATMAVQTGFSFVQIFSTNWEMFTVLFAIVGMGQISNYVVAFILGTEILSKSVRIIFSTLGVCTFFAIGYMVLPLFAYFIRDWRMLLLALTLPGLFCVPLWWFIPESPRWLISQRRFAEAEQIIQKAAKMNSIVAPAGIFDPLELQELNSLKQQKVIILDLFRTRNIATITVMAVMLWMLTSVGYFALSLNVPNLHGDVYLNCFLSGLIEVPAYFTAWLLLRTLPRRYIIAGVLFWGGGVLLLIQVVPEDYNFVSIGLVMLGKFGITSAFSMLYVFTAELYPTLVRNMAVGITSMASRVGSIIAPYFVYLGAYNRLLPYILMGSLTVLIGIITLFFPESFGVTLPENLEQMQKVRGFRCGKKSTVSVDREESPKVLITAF
Kind of assay: [3H]L-carnitine uptake in NSC-34 cells with mOCTN1 siRNA knockdown. It counts as cell-based.

As for `C[N+](C)(C)C[C@H](O)CC(=O)[O-]` [LC, L-carnitine], the “[3H]L-carnitine uptake in NSC-34 cells with mOCTN2 siRNA knockdown” value at OCTN2/slc22a5 is “mOCTN1 and mOCTN2 siRNA-transfected NSC-34 cell lines demonstrated a significant decrease in the slc22a4 and slc22a5 gene expression level”. Further, the “[3H]L-carnitine uptake in NSC-34 cells with mOCTN1 siRNA knockdown” value at OCTN1/slc22a4 is “OCTN1/slc22a4 and OCTN2/slc22a5 siRNA transfection study revealed both transporters are involved in LC transport in NSC-34 cell lines”.

These data come from article PMC8070968, “The Alteration of L-Carnitine Transport and Pretreatment Effect under Glutamate Cytotoxicity on Motor Neuron-Like NSC-34 Lines” (Pharmaceutics, 2021).
